Assay results: PubChem BioAssay AID2060906 (Molecular Pharmacology Branch, DTP, NCI, 2025)

System: 485176-168-R4-J1-PDC complex spheroid growth
Experiment: Anticancer human tumor 485176-168-R4-J1-PDC patient-derived pancreatic adenocarcinoma cell line growth inhibition [RAS]
Conditions: for IC50: curve of first compound; for viability, T/C: stronger effect = lower value
How it was run: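 Tumour cells grown as complex spheroids with HUVEC endothelial cells and mesenchymal stem cells, treated with RAS pathway inhibitor combinations. Each agent spans half-log steps from near clinical Cmax, or 10 microM where Cmax is unknown.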

[1] = second compound 0.000949 µM, first compound 0.00316 µM
[2] = second compound 0.000949 µM, first compound 0.01 µM
[3] = second compound 0.000949 µM, first compound 0.0316 µM
[4] = second compound 0.000949 µM, first compound 0.1 µM
[5] = second compound 0.000949 µM, first compound 0.316 µM
[6] = second compound 0.000949 µM, first compound 1 µM
[7] = second compound 0.003 µM, first compound 0.00316 µM
[8] = second compound 0.003 µM, first compound 0.01 µM
[9] = second compound 0.003 µM, first compound 0.0316 µM
[10] = second compound 0.003 µM, first compound 0.1 µM
[11] = second compound 0.003 µM, first compound 0.316 µM
[12] = second compound 0.003 µM, first compound 1 µM
[13] = second compound 0.00949 µM, first compound 0.00316 µM
[14] = second compound 0.00949 µM, first compound 0.01 µM
[15] = second compound 0.00949 µM, first compound 0.0316 µM
[16] = second compound 0.00949 µM, first compound 0.1 µM
[17] = second compound 0.00949 µM, first compound 0.316 µM
[18] = second compound 0.00949 µM, first compound 1 µM
[19] = second compound 0.03 µM, first compound 0.00316 µM
[20] = second compound 0.03 µM, first compound 0.01 µM
[21] = second compound 0.03 µM, first compound 0.0316 µM
[22] = second compound 0.03 µM, first compound 0.1 µM
[23] = second compound 0.03 µM, first compound 0.316 µM
[24] = second compound 0.03 µM, first compound 1 µM
[25] = second compound 0.0949 µM, first compound 0.00316 µM
[26] = second compound 0.0949 µM, first compound 0.01 µM
[27] = second compound 0.0949 µM, first compound 0.0316 µM
[28] = second compound 0.0949 µM, first compound 0.1 µM
[29] = second compound 0.0949 µM, first compound 0.316 µM
[30] = second compound 0.0949 µM, first compound 1 µM
[31] = second compound 0.3 µM, first compound 0.00316 µM
[32] = second compound 0.3 µM, first compound 0.01 µM
[33] = second compound 0.3 µM, first compound 0.0316 µM
[34] = second compound 0.3 µM, first compound 0.1 µM
[35] = second compound 0.3 µM, first compound 0.316 µM
[36] = second compound 0.3 µM, first compound 1 µM
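Further: spheroids exposed to compounds for seven days before readout.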
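Wherever viability, T/C is given: luminescence viability expressed relative to DMSO vehicle wells set as 100%.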

O=C(c1ccc(F)c(F)c1Nc1ccc(I)cc1F)N1CC(O)([C@@H]2CCCCN2)C1 + CCn1c(-c2cccnc2C(C)OC)c2c3cc(ccc31)N1CCOC(CC(NC(=O)C(C(C)C)N(C)C(=O)C3(F)CCN(C(=O)C#CC(C)(C)N(C)C)CC3)C(=O)N3CCCC(N3)C(=O)OCC(C)(C)C2)C1
IC50 (second compound 0.000949 µM): 0.349 µM | IC50 (second compound 0.003 µM): 0.409 µM | IC50 (second compound 0.00949 µM): 0.154 µM | IC50 (second compound 0.03 µM): 0.235 µM | IC50 (second compound 0.0949 µM): 0.142 µM | IC50 (second compound 0.3 µM): 0.0326 µM | viability, T/C [1]: 90.4% | viability, T/C [2]: 79% | viability, T/C [3]: 86.3% | viability, T/C [4]: 61.4% | viability, T/C [5]: 53.8% | viability, T/C [6]: 39.9% | viability, T/C [7]: 79.3% | viability, T/C [8]: 65.8% | viability, T/C [9]: 73.2% | viability, T/C [10]: 58% | viability, T/C [11]: 50.9% | viability, T/C [12]: 43.7% | viability, T/C [13]: 77.8% | viability, T/C [14]: 85.8% | viability, T/C [15]: 68.6% | viability, T/C [16]: 55% | viability, T/C [17]: 43.4% | viability, T/C [18]: 36% | viability, T/C [19]: 97.1% | viability, T/C [20]: 89.8% | viability, T/C [21]: 69.3% | viability, T/C [22]: 51.9% | viability, T/C [23]: 56.7% | viability, T/C [24]: 36.7% | viability, T/C [25]: 89.7% | viability, T/C [26]: 64.1% | viability, T/C [27]: 68.6% | viability, T/C [28]: 53.6% | viability, T/C [29]: 44.2% | viability, T/C [30]: 32.3% | viability, T/C [31]: 67.2% | viability, T/C [32]: 70.8% | viability, T/C [33]: 50.2% | viability, T/C [34]: 45.6% | viability, T/C [35]: 40% | viability, T/C [36]: 39.5%

CCN1CCN(Cc2ccc(Nc3ncc(F)c(-c4cc(F)c5nc(C)n(C(C)C)c5c4)n3)nc2)CC1 + CCn1c(-c2cc(N3CCN(C)CC3)cnc2C(C)OC)c2c3cc(ccc31)-c1csc(n1)CC(NC(=O)C1CC1C)C(=O)N1CCCC(N1)C(=O)OCC(C)(C)C2
IC50 (second compound 0.000949 µM): > 1 µM | IC50 (second compound 0.003 µM): > 1 µM | IC50 (second compound 0.00949 µM): 0.756 µM | IC50 (second compound 0.03 µM): 0.938 µM | IC50 (second compound 0.0949 µM): 0.929 µM | IC50 (second compound 0.3 µM): > 1 µM | viability, T/C [1]: 78.7% | viability, T/C [2]: 80.9% | viability, T/C [3]: 81% | viability, T/C [4]: 67.4% | viability, T/C [5]: 73% | viability, T/C [6]: 54.8% | viability, T/C [7]: 84.9% | viability, T/C [8]: 76.5% | viability, T/C [9]: 85.2% | viability, T/C [10]: 66.9% | viability, T/C [11]: 62.7% | viability, T/C [12]: 53.8% | viability, T/C [13]: 75.3% | viability, T/C [14]: 85.8% | viability, T/C [15]: 73.4% | viability, T/C [16]: 70.2% | viability, T/C [17]: 63% | viability, T/C [18]: 45.9% | viability, T/C [19]: 77.5% | viability, T/C [20]: 68.1% | viability, T/C [21]: 75.3% | viability, T/C [22]: 58.3% | viability, T/C [23]: 63.8% | viability, T/C [24]: 47.9% | viability, T/C [25]: 64.7% | viability, T/C [26]: 74.7% | viability, T/C [27]: 59.2% | viability, T/C [28]: 55.1% | viability, T/C [29]: 51.6% | viability, T/C [30]: 52% | viability, T/C [31]: 54.9% | viability, T/C [32]: 76.6% | viability, T/C [33]: 70.9% | viability, T/C [34]: 65.3% | viability, T/C [35]: 53.5% | viability, T/C [36]: 51%
